For assay [1], the system named is caspase-3/7 activity in HT29 cells. Briefly: Caspase 3/7 activity assay. The format is cell-based, human. Conditions: HT29, 1.25 – 5 µM, 24 h.
Assay [2] relates to HT29 cells. The assay can be described thus: TUNEL assay. Conditions: HT29, 5 µM, 48 h. The format is cell-based, human.
Assay [3] has as its system Akt (phospho-Akt and total Akt) in HT29 cells. The assay can be described thus: Western analysis of phospho-Akt and total Akt. The format is cell-based, human. Conditions: 24 h, Western blot; for effect on Akt expression and phosphorylation, 1 µM: HT29, 1 µM; for effect on Akt expression and phosphorylation: HT29, 1 or 2 µM (not specified).
Assay [4] has as its system purified bovine brain tubulin. Briefly: Fluorescence-based tubulin polymerization assay. The format is biochemical. The following applies: 10 µM, cell-free.

For `N#C[Se]CCCN1C(=O)C(=O)c2cc(Br)cc(Br)c21` [Compound 5, 5,7-Dibromo-N-(3’-selenocyanatopropyl)isatin], the “caspase-3/7 activity relative to DMSO vehicle treated cells” value in assay [1] is “significant dose dependent increases in caspase-3/7 activity”.

`O=C1C(=O)N(CCCN=C=S)c2c(Br)cc(Br)cc21` [Compound 6, 5,7-Dibromo-N-(3’-isothiocyanatopropyl)isatin]: the “TUNEL staining (DNA fragmentation)” value in assay [2] is given as “significant number of TUNEL-positive colon cancer cells”. For the same compound, in assay [1], the “caspase-3/7 activity relative to DMSO vehicle treated cells” value is “significant dose dependent increases in caspase-3/7 activity”. For the same compound, in assay [3], the “effect on Akt expression and phosphorylation, 1 µM” value (shortened to “effect … 1 µM”) is “very little effect on either expression or phosphorylation of Akt”. The “effect on Akt expression and phosphorylation, 2 µM” value in assay [3] (HT29, 2 µM) is “both levels and phosphorylation state of Akt were reduced”.

As for `N#CSCc1ccc(CN2C(=O)C(=O)c3cc(Br)cc(Br)c32)cc1` [Compound 11, 5,7-Dibromo-N-(p-thiocyanomethylbenzyl)isatin], the “TUNEL staining (DNA fragmentation)” value in assay [2] is “significant number of TUNEL-positive colon cancer cells”. The “caspase-3/7 activity relative to DMSO vehicle treated cells” value in assay [1] is given as “significant dose dependent increases in caspase-3/7 activity”. Further, the “inhibition of the rate of microtubule polymerization” value in assay [4] (1 h at 37 °C) is recorded as “about 71%”. Also, in assay [3], the “effect … 1 µM” value is “reduced Akt protein levels and strongly suppressed the phosphorylation of Akt”; the “effect on Akt expression and phosphorylation” value is listed as “Akt levels were reduced but the phosphorylation was virtually eliminated”.

Regarding `O=C1C(=O)N(Cc2ccc(CN=C=S)cc2)c2c(Br)cc(Br)cc21` [Compound 13, 5,7-Dibromo-N-(p-isothiocyanatomethylbenzyl)isatin], the “caspase-3/7 activity relative to DMSO vehicle treated cells” value in assay [1] is listed as “significant dose dependent increases in caspase-3/7 activity”. Further, in assay [3], the “effect … 1 µM” value is “reduced Akt protein levels and strongly suppressed the phosphorylation of Akt”; the “effect on Akt expression and phosphorylation” value is “Akt levels were reduced but the phosphorylation was virtually eliminated”.

In the case of `CC[C@]1(O)C[C@@H]2CN(CCc3c([nH]c4ccccc34)[C@@](C(=O)OC)(c3cc4c(cc3OC)N(C)[C@H]3[C@@](O)(C(=O)OC)[C@H](OC(C)=O)[C@]5(CC)C=CCN6CC[C@]43[C@@H]65)C2)C1.O=S(=O)(O)O` [Vinblastine, vinblastine sulfate], the “effect on microtubule formation versus vehicle control” value in assay [4] is “strongly inhibited microtubule formation”.

Take `CC(=O)O[C@H]1C(=O)[C@@]2(C)[C@H]([C@H](OC(=O)c3ccccc3)[C@]3(O)C[C@H](OC(=O)[C@H](O)[C@@H](NC(=O)c4ccccc4)c4ccccc4)C(C)=C1C3(C)C)[C@]1(OC(C)=O)CO[C@@H]1C[C@@H]2O` [paclitaxel]: the “effect on microtubule formation versus vehicle control” value in assay [4] is recorded as “stabilized microtubules”.

For the origin of these results see article PMC3235409 (Bioorganic & medicinal chemistry, 2011).
